Measured values: ChEMBL document CHEMBL5543099 (Eur J Med Chem, 2024)
Values after ≈ are worked out from the molar mass of the structure shown. Active and inactive are the calls of the source. The calls are words filed in the database; no cut-off is given here.

Tests used:
Staphylococcus aureus [1] = test: Antibacterial activity against vancomycin intermediate Staphylococcus aureus assessed as inhibition of bacterial growth incubated for 24 hrs by broth microdilution method; assay type: functional
Staphylococcus aureus [2] = test: Antibacterial activity against methicilin-resistant Staphylococcus aureus assessed as inhibition of bacterial growth incubated for 24 hrs by broth microdilution method; assay type: functional
Staphylococcus aureus [3] = test: Antibacterial activity against Staphylococcus aureus assessed as reduction in bacterial colony at 8 times of MIC incubated for 1 hrs by time-kill kinetics assay; assay type: functional, organism-based
Staphylococcus aureus [4] = test: Drug resistance, ratio of MIC for Staphylococcus aureus ATCC 29213 incubated for 16 to 18 hrs and measured after 16 passages to MIC for Staphylococcus aureus ATCC 29213 incubated for 16 to 18 hrs; assay type: functional
Staphylococcus aureus [5] = test: Anti-biofilm activity against Staphylococcus aureus assessed as reduction in bacterial density at 16 times of MIC incubated for 24 hrs by confocal laser scanning microscopic analysis; assay type: functional, organism-based
Staphylococcus aureus [6] = test: Antimicrobial activity against Staphylococcus aureus ATCC 29213 assessed as inhibition of bacterial growth incubated for 16 to 18 hrs by CLSI protocol based Muller Hinton broth assay; assay type: functional; details: time 16-18 hrs
Escherichia coli [7] = test: Induction of morphological changes in Escherichia coli assessed as outer membrane damage at 8 times of MIC incubated for 4 hrs by scanning electron microscopic analysis; assay type: functional, organism-based
Cell membrane [8] = test: Induction of cell membrane damage in Escherichia coli assessed as nucleic acid leakage at 4 times of MIC incubated for 2 hrs by n ultra-micro-volume spectrophotometric analysis; assay type: cell membranes
Staphylococcus aureus [9] = test: Induction of morphological changes in Staphylococcus aureus assessed as appearance of aggregated membrane sheets at 8 times of MIC incubated for 4 hrs by scanning electron microscopic analysis; assay type: functional, organism-based
Staphylococcus aureus [10] = test: Antibacterial activity against Staphylococcus aureus assessed as inhibition of bacterial growth by measuring fold change in MIC incubated for 6 hrs in presence of 50% fetal bovine serum by CLSI protocol based Muller Hinton broth assay; assay type: functional
Staphylococcus aureus [11] = test: Antibacterial activity against Staphylococcus aureus assessed as inhibition of bacterial growth incubated for 6 hrs in presence of 50% fetal bovine plasma by CLSI protocol based Muller Hinton broth assay; assay type: functional
Escherichia coli [12] = test: Antibacterial activity against Escherichia coli ATCC 25922 incubated for 16 to 18 hrs and measured before 7th passage by CLSI protocol based Muller Hinton broth assay; assay type: functional, organism-based
[13] = test system: Stenotrophomonas maltophilia; test: Antimicrobial activity against Stenotrophomonas maltophilia ATCC 17808 assessed as inhibition of bacterial growth incubated for 16 to 18 hrs by CLSI protocol based Muller Hinton broth assay; assay type: functional; details: time 16-18 hrs
Staphylococcus aureus [14] = test: Antibacterial activity against Staphylococcus aureus assessed as reduction in bacterial colony incubated upto 24 hrs by time-kill kinetics assay; assay type: functional
Escherichia coli [15] = test: Induction of morphological changes in Escherichia coli assessed as shattering of rod shaped cells at 8 times of MIC incubated for 4 hrs by scanning electron microscopic analysis; assay type: functional, organism-based
Staphylococcus aureus [16] = test: Antibacterial activity against Staphylococcus aureus assessed as inhibition of bacterial growth by measuring fold change in MIC incubated for 6 hrs in presence of 50% fetal bovine plasma by CLSI protocol based Muller Hinton broth assay; assay type: functional
Cell membrane [17] = test: Induction of Cytoplasmic membrane depolarization in Staphylococcus aureus at 8 to 16 microg/ml incubated for 15 mins by fluorescence microplate reader; assay type: cell membranes; details: dose 8-16 µg/ml
[18] = Cytotoxicity against human SW620 cells assessed as cell survival rate at 64 microg/ml incubated for 48 hrs by CCK8 assay relative to control; assay type: toxicity, cell-based, SW-620; details: at 64 µg/mL, read-out: Activity
Enterococcus faecalis = test: Antimicrobial activity against Enterococcus faecalis ATCC 29212 assessed as inhibition of bacterial growth incubated for 16 to 18 hrs by CLSI protocol based Muller Hinton broth assay; assay type: functional; details: time 16-18 hrs
Staphylococcus aureus [19] = test: Antibacterial activity against persistent Staphylococcus aureus assessed as reduction in bacterial colony at 16 times of MIC measured for 24 hrs by CLSI protocol based Muller Hinton broth assay; assay type: functional, organism-based
Staphylococcus aureus [20] = test: Anti-biofilm activity against Staphylococcus aureus assessed as punctate distribution of bacteria in biofilm at 32 times of MIC incubated for 24 hrs by confocal laser scanning microscopic analysis; assay type: functional, organism-based
Staphylococcus aureus [21] = test: Anti-biofilm activity against Staphylococcus aureus assessed as reduction in extended colonies in biofilm at 16 times of MIC incubated for 24 hrs by confocal laser scanning microscopic analysis; assay type: functional, organism-based
Staphylococcus aureus [22] = test: Induction of morphological changes in Staphylococcus aureus assessed as irregular spherical appearance at 8 times of MIC incubated for 4 hrs by scanning electron microscopic analysis; assay type: functional, organism-based
[23] = Hemolytic activity in defibrinated sheep RBC incubated for 1 hrs; assay type: toxicity, cell-based, Ovis aries, Erythrocyte; details: defibrinated sheep red blood cells
Escherichia coli [24] = test: Antimicrobial activity against Escherichia coli ATCC 25922 assessed as inhibition of bacterial growth incubated for 16 to 18 hrs by CLSI protocol based Muller Hinton broth assay; assay type: functional; details: time 16-18 hrs
Escherichia coli [25] = test: Antibacterial activity against Escherichia coli assessed as reduction in bacterial colony at 2 times of MIC incubated for 2 to 24 hrs by time kill kinetics assay; assay type: functional, organism-based; details: time 2-24 hrs
Staphylococcus aureus [26] = test: Anti-biofilm activity against Staphylococcus aureus assessed as reduction in bacteria in biofilm at 32 times of MIC incubated for 24 hrs by confocal laser scanning microscopic analysis; assay type: functional, organism-based
Staphylococcus aureus [27] = test: Induction of morphological changes in Staphylococcus aureus assessed as disintegrated membrane blocks at 8 times of MIC incubated for 4 hrs by scanning electron microscopic analysis; assay type: functional, organism-based
Cell membrane [28] = test: Induction of cell membrane damage in Staphylococcus aureus assessed as nucleic acid leakage at 4 times of MIC incubated for 2 hrs by n ultra-micro-volume spectrophotometric analysis; assay type: cell membranes
[29] = Cytotoxicity against rat HBZY-1 cells assessed as cell survival rate at 64 microg/ml incubated for 48 hrs by CCK8 assay relative to control; assay type: toxicity, cell-based; details: at 64 µg/mL, read-out: Activity
Escherichia coli [30] = test: Drug resistance, ratio of MIC for Escherichia coli ATCC 25922 incubated for 16 to 18 hrs and measured after 25 passage to MIC for Escherichia coli ATCC 25922 incubated for 16 to 18 hrs; assay type: functional
Staphylococcus aureus [31] = test: Antimicrobial activity against Staphylococcus aureus ATCC 29213 incubated for 16 to 18 hrs and measured before 9th passage by CLSI protocol based Muller Hinton broth assay; assay type: functional, organism-based
[32] = Hemolytic activity in defibrinated sheep RBC assessed as hemolysis rate at 1280 microg/ml incubated for 1 hrs relative to control; assay type: toxicity, cell-based, Ovis aries, Erythrocyte; details: defibrinated sheep red blood cells, at 1280 µg/mL, read-out: Activity
Escherichia coli [33] = test: Induction of morphological changes in Escherichia coli assessed as disintegration of rod shaped cells at 8 times of MIC incubated for 4 hrs by scanning electron microscopic analysis; assay type: functional, organism-based
Cell membrane [34] = test: Induction of inner membrane permeabilization in Staphylococcus aureus assessed as fluorescence intensity at 16 microg/ml incubated for 15 mins by PI staining based microplate reader; assay type: cell membranes; details: dose 16.0 µg/ml
Staphylococcus aureus [35] = test: Antibacterial activity against Staphylococcus aureus assessed as inhibition of bacterial growth by measuring fold change in MIC incubated for 6 hrs in presence of defibrinated sheep 50% plasma by CLSI protocol based Muller Hinton broth assay; assay type: functional
Staphylococcus aureus [36] = test: Antibacterial activity against Staphylococcus aureus assessed as inhibition of bacterial growth incubated for 6 hrs in presence of defibrinated sheep 50% plasma by CLSI protocol based Muller Hinton broth assay; assay type: functional
Staphylococcus aureus [37] = test: Drug resistance, ratio of MIC for Staphylococcus aureus ATCC 29213 incubated for 16 to 18 hrs and measured after 2 passages to MIC for Staphylococcus aureus ATCC 29213 incubated for 16 to 18 hrs; assay type: functional
Staphylococcus aureus [38] = test: Antibacterial activity against methicillin resistant Staphylococcus aureus; assay type: functional

CCCCCCCC[n+]1ccc(CN[C@@]2(C)C[C@H](O[C@H]3[C@H](Oc4c5cc6cc4Oc4ccc(cc4Cl)[C@@H](O)[C@@H](NC(=O)[C@@H](CC(C)C)NC)C(=O)N[C@@H](CC(N)=O)C(=O)N[C@H]6C(=O)N[C@H]4C(=O)N[C@H](C(=O)N[C@@H](C(=O)O)c6cc(O)cc(O)c6-c6cc4ccc6O)[C@H](O)c4ccc(c(Cl)c4)O5)O[C@H](CO)[C@@H](O)[C@@H]3O)O[C@@H](C)[C@H]2O)cc1
MIC (Staphylococcus aureus [1]): 0.11 µM | MIC (Staphylococcus aureus [2]): 0.1 µM

CCCCCCCCNC(=O)C[n+]1ccc(C(=O)N2CCN(c3cc4c(cc3F)c(=O)c(C(=O)O)cn4C3CC3)CC2)cc1.[Br-]
Activity (Staphylococcus aureus [3]): Active | Ratio (Staphylococcus aureus [4]): 4 | Activity (Staphylococcus aureus [5]): Active | MIC (Staphylococcus aureus [6]): 2 µg/mL | Activity (Escherichia coli [7]): Active | Activity (Cell membrane [8]): Active | Activity (Staphylococcus aureus [9]): Active | fold change (FC) (Staphylococcus aureus [10]): 2 | MIC (Staphylococcus aureus [11]): 4 µg/mL | Activity (Escherichia coli [12]): Active | MIC [13]: 8 µg/mL | MIC (Staphylococcus aureus [14]): 2 µg/mL | Activity (Escherichia coli [15]): Active | fold change (FC) (Staphylococcus aureus [16]): 2 | Activity (Cell membrane [17]): Active | viability at 48 h, 64 microg/ml [18]: 68.2% | MIC (Enterococcus faecalis): 2 µg/mL | Activity (Staphylococcus aureus [19]): Active | Activity (Staphylococcus aureus [20]): Active | Activity (Staphylococcus aureus [21]): Active | Activity (Staphylococcus aureus [22]): Active | HC50 at 1 h [23]: > 1280 µg/mL | MIC (Escherichia coli [24]): 2 µg/mL | Activity (Escherichia coli [25]): Active | Activity (Staphylococcus aureus [26]): Active | Activity (Staphylococcus aureus [27]): Active | Activity (Cell membrane [28]): Active | viability at 48 h, 64 microg/ml [29]: 96.9% | Ratio (Escherichia coli [30]): 2 | Activity (Staphylococcus aureus [31]): Active | hemolysis at 1 h, 1280 microg/ml [32]: 5.1% | Activity (Escherichia coli [33]): Active | Flu intensity (Cell membrane [34]): 300 | fold change (FC) (Staphylococcus aureus [35]): 2 | MIC (Staphylococcus aureus [36]): 4 µg/mL

CCn1cc(C(=O)O)c(=O)c2cc(F)c(N3CCNCC3)cc21 [NORFLOXACIN]
Ratio (Staphylococcus aureus [4]): 64 | Ratio (Staphylococcus aureus [37]): 2

COc1c2c(cc(F)c1N1CCN(CC(=O)Nc3ncc([N+](=O)[O-])s3)CC1)C(=O)C(C(=O)O)=CC2C1CC1 (stereo not given)
MIC (Staphylococcus aureus [38]): 0.01 µg/mL (≈ 0.0183 µM)
